Tests used:
corn [1] = assay: Test A postemergence; format: in vivo, Zea mays; settings: Postemergence, 1000 g ai/ha; visual rating after approx. 10 days, 0 to 100 scale (0 no effect, 100 complete control)
How it was run: (§1)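 Growth medium: loam soil blended with sand. Preemergence treatment used a directed soil spray right after planting; postemergence treatment targeted seedlings at one to two leaves (2–10 cm height). Response was judged by eye relative to untreated plants about 10 days later on a 0–100 control scale.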

velvetleaf [2] = assay: Test A preemergence; format: in vivo, Abutilon theophrasti; settings: Preemergence, 1000 g ai/ha; 0 to 100 scale, 0 no effect, 100 complete control
How it was run: as §1

velvetleaf [3] = assay: Test A postemergence; format: in vivo, Abutilon theophrasti; settings: Postemergence, 1000 g ai/ha; visual rating after approx. 10 days, 0 to 100 scale (0 no effect, 100 complete control)
How it was run: as §1

foxtail, giant [4] = assay: Test A preemergence; format: in vivo, Setaria faberii; settings: Preemergence, 1000 g ai/ha; 0 to 100 scale, 0 no effect, 100 complete control
How it was run: as §1

morningglory [5] = assay: Test A postemergence; format: in vivo, Ipomoea spp.; settings: Postemergence, 1000 g ai/ha; visual rating after approx. 10 days, 0 to 100 scale (0 no effect, 100 complete control)
How it was run: as §1

crabgrass, large [6] = assay: Test A preemergence; format: in vivo, Digitaria sanguinalis; settings: Preemergence, 1000 g ai/ha; 0 to 100 scale, 0 no effect, 100 complete control
How it was run: as §1

barnyardgrass [7] = assay: Test A preemergence; format: in vivo, Echinochloa crus-galli; settings: Preemergence, 1000 g ai/ha; 0 to 100 scale, 0 no effect, 100 complete control
How it was run: as §1

morningglory [8] = assay: Test A preemergence; format: in vivo, Ipomoea spp.; settings: Preemergence, 1000 g ai/ha; 0 to 100 scale, 0 no effect, 100 complete control
How it was run: as §1

wheat [9] = assay: Test A preemergence; format: in vivo, Triticum aestivum
How it was run: as §1

corn [10] = assay: Test A preemergence; format: in vivo, Zea mays; settings: Preemergence, 1000 g ai/ha; 0 to 100 scale, 0 no effect, 100 complete control
How it was run: as §1

foxtail, giant [11] = assay: Test A postemergence; format: in vivo, Setaria faberii; settings: Postemergence, 1000 g ai/ha; visual rating after approx. 10 days, 0 to 100 scale (0 no effect, 100 complete control)
How it was run: as §1

pigweed [12] = assay: Test A postemergence; format: in vivo, Amaranthus retroflexus; settings: Postemergence, 1000 g ai/ha; visual rating after approx. 10 days, 0 to 100 scale (0 no effect, 100 complete control)
How it was run: as §1

wheat [13] = assay: Test A postemergence; format: in vivo, Triticum aestivum; settings: Postemergence, 1000 g ai/ha; visual rating after approx. 10 days, 0 to 100 scale (0 no effect, 100 complete control)
How it was run: as §1

barnyardgrass [14] = assay: Test A postemergence; format: in vivo, Echinochloa crus-galli; settings: Postemergence, 1000 g ai/ha; visual rating after approx. 10 days, 0 to 100 scale (0 no effect, 100 complete control)
How it was run: as §1

pigweed [15] = assay: Test A preemergence; format: in vivo, Amaranthus retroflexus; settings: Preemergence, 1000 g ai/ha; 0 to 100 scale, 0 no effect, 100 complete control
How it was run: as §1

crabgrass, large [16] = assay: Test A postemergence; format: in vivo, Digitaria sanguinalis; settings: Postemergence, 1000 g ai/ha; visual rating after approx. 10 days, 0 to 100 scale (0 no effect, 100 complete control)
How it was run: as §1

[17] = Preemergence, 1000 g ai/ha, 0 to 100 scale, 0 no effect, 100 complete control
[18] = preemergence, 500 g ai/ha, visual injury after approx. 10 days, 0 to 100 scale (0 no effect, 100 complete control)

| SMILES | Corn plant response rating (corn [1]) | Velvetleaf plant response rating (velvetleaf [2]) | Velvetleaf plant response rating (velvetleaf [3]) | Foxtail, Giant plant response rating (foxtail, giant [4]) | Morningglory plant response rating (morningglory [5]) | Crabgrass, Large plant response rating (crabgrass, large [6]) | Barnyardgrass plant response rating (barnyardgrass [7]) | Morningglory plant response rating (morningglory [8]) | Wheat plant response rating (wheat [9]; [17]) | Corn plant response rating (corn [10]) | Foxtail, Giant plant response rating (foxtail, giant [11]) | Pigweed plant response rating (pigweed [12]) | Wheat plant response rating (wheat [13]) | Barnyardgrass plant response rating (barnyardgrass [14]) | Pigweed plant response rating (pigweed [15]) | Crabgrass, Large plant response rating (crabgrass, large [16]) | Wheat plant response rating (wheat [9]; [18]) |
| --- | --- | --- | --- | --- | --- | --- | --- | --- | --- | --- | --- | --- | --- | --- | --- | --- | --- |
| CCc1cc(C(=O)NCCC(F)(F)F)nn1Cc1cccc(OC(F)(F)F)c1 [Compound 55] | 20 | 10 | 90 | 90 | 100 | 100 | 10 | 20 | 0 | 0 | 50 | 70 | 10 | 10 | 80 | 50 | – |
| CCc1cc(C(=O)N(C)C)nn1Cc1cccc(OC(F)(F)F)c1 [Compound 56] | 10 | 0 | 10 | 10 | 70 | 0 | 0 | 0 | 0 | 0 | 20 | 60 | 0 | 0 | 0 | 10 | – |
| CCc1cc(C(=O)NCCOC)nn1Cc1cccc(OC(F)(F)F)c1 [Compound 57] | 40 | 0 | 30 | 90 | 60 | 20 | 10 | 10 | 0 | 0 | 10 | 50 | 0 | 10 | 10 | 10 | 0 |
| CCCCNC(=O)c1cc(CC)n(Cc2cccc(OC(F)(F)F)c2)n1 [Compound 62] | 50 | 10 | 70 | 60 | 80 | 40 | 10 | 20 | 0 | 0 | 30 | 70 | 20 | 10 | 20 | 20 | 0 |

— patent US20150105252A1, “SUBSTITUTED PYRAZOLES AS HERBICIDES” (E I DU PONT DE NEMOURS AND COMPANY, priority 2013, published 2015)
